Data from BigSolDB 2.1.

[1] = in tetrachloromethane, 283.15 K
[2] = in tetrachloromethane, 288.15 K
[3] = in tetrachloromethane, 293.15 K
[4] = in tetrachloromethane, 298.15 K
[5] = in tetrachloromethane, 303.15 K
[6] = in tetrachloromethane, 308.15 K
[7] = in tetrachloromethane, 313.15 K
[8] = in tetrachloromethane, 318.15 K
[9] = in tetrachloromethane, 323.15 K
[10] = in tetrachloromethane, 328.15 K
[11] = in tetrachloromethane, 333.15 K

O=C1c2ccccc2-c2ccccc21
solubility (mole fraction) (in diisopropyl ether, 283.15 K): 0.0297
solubility (mole fraction) (in diisopropyl ether, 288.15 K): 0.0356
solubility (mole fraction) (in diisopropyl ether, 293.15 K): 0.0426
solubility (mole fraction) (in diisopropyl ether, 298.15 K): 0.0541
solubility (mole fraction) (in diisopropyl ether, 303.15 K): 0.0642
solubility (mole fraction) (in diisopropyl ether, 308.15 K): 0.0815
solubility (mole fraction) (in diisopropyl ether, 313.15 K): 0.108
solubility (mole fraction) (in diisopropyl ether, 318.15 K): 0.137
solubility (mole fraction) (in diisopropyl ether, 323.15 K): 0.18
solubility (mole fraction) (in diisopropyl ether, 328.15 K): 0.228
solubility (mole fraction) (in diisopropyl ether, 333.15 K): 0.309
solubility (mole fraction) (in ethanol, 283.15 K): 0.0209
solubility (mole fraction) (in ethanol, 288.15 K): 0.0241
solubility (mole fraction) (in ethanol, 293.15 K): 0.0301
solubility (mole fraction) (in ethanol, 298.15 K): 0.043
solubility (mole fraction) (in ethanol, 303.15 K): 0.0562
solubility (mole fraction) (in ethanol, 308.15 K): 0.0976
solubility (mole fraction) (in ethanol, 313.15 K): 0.144
solubility (mole fraction) (in ethanol, 318.15 K): 0.207
solubility (mole fraction) (in ethanol, 323.15 K): 0.292
solubility (mole fraction) (in ethanol, 328.15 K): 0.409
solubility (mole fraction) (in ethanol, 333.15 K): 0.548
solubility (mole fraction) (in ethyl acetate, 283.15 K): 0.123
solubility (mole fraction) (in ethyl acetate, 288.15 K): 0.142
solubility (mole fraction) (in ethyl acetate, 293.15 K): 0.173
solubility (mole fraction) (in ethyl acetate, 298.15 K): 0.221
solubility (mole fraction) (in ethyl acetate, 303.15 K): 0.244
solubility (mole fraction) (in ethyl acetate, 308.15 K): 0.284
solubility (mole fraction) (in ethyl acetate, 313.15 K): 0.335
solubility (mole fraction) (in ethyl acetate, 318.15 K): 0.395
solubility (mole fraction) (in ethyl acetate, 323.15 K): 0.465
solubility (mole fraction) (in ethyl acetate, 328.15 K): 0.548
solubility (mole fraction) (in ethyl acetate, 333.15 K): 0.63
solubility (mole fraction) (in n-butanol, 283.15 K): 0.0267
solubility (mole fraction) (in n-butanol, 288.15 K): 0.0321
solubility (mole fraction) (in n-butanol, 293.15 K): 0.0402
solubility (mole fraction) (in n-butanol, 298.15 K): 0.0498
solubility (mole fraction) (in n-butanol, 303.15 K): 0.0685
solubility (mole fraction) (in n-butanol, 308.15 K): 0.0848
solubility (mole fraction) (in n-butanol, 313.15 K): 0.126
solubility (mole fraction) (in n-butanol, 318.15 K): 0.162
solubility (mole fraction) (in n-butanol, 323.15 K): 0.236
solubility (mole fraction) (in n-butanol, 328.15 K): 0.311
solubility (mole fraction) (in n-butanol, 333.15 K): 0.4
solubility (mole fraction) [1]: 0.114
solubility (mole fraction) [2]: 0.142
solubility (mole fraction) [3]: 0.158
solubility (mole fraction) [4]: 0.192
solubility (mole fraction) [5]: 0.241
solubility (mole fraction) [6]: 0.291
solubility (mole fraction) [7]: 0.347
solubility (mole fraction) [8]: 0.403
solubility (mole fraction) [9]: 0.462
solubility (mole fraction) [10]: 0.519
solubility (mole fraction) [11]: 0.582
solubility (mole fraction) (in toluene, 283.15 K): 0.12
solubility (mole fraction) (in toluene, 288.15 K): 0.142
solubility (mole fraction) (in toluene, 293.15 K): 0.164
solubility (mole fraction) (in toluene, 298.15 K): 0.197
solubility (mole fraction) (in toluene, 303.15 K): 0.228
solubility (mole fraction) (in toluene, 308.15 K): 0.264
solubility (mole fraction) (in toluene, 313.15 K): 0.315
solubility (mole fraction) (in toluene, 318.15 K): 0.371
solubility (mole fraction) (in toluene, 323.15 K): 0.41
solubility (mole fraction) (in toluene, 328.15 K): 0.485
solubility (mole fraction) (in toluene, 333.15 K): 0.55

c1ccc2c(c1)oc1ccccc12
solubility (mole fraction) (in diisopropyl ether, 283.15 K): 0.0838
solubility (mole fraction) (in diisopropyl ether, 288.15 K): 0.104
solubility (mole fraction) (in diisopropyl ether, 293.15 K): 0.13
solubility (mole fraction) (in diisopropyl ether, 298.15 K): 0.155
solubility (mole fraction) (in diisopropyl ether, 303.15 K): 0.183
solubility (mole fraction) (in diisopropyl ether, 308.15 K): 0.237
solubility (mole fraction) (in diisopropyl ether, 313.15 K): 0.284
solubility (mole fraction) (in diisopropyl ether, 318.15 K): 0.341
solubility (mole fraction) (in diisopropyl ether, 323.15 K): 0.412
solubility (mole fraction) (in diisopropyl ether, 328.15 K): 0.508
solubility (mole fraction) (in diisopropyl ether, 333.15 K): 0.58
solubility (mole fraction) (in ethanol, 283.15 K): 0.0211
solubility (mole fraction) (in ethanol, 288.15 K): 0.0271
solubility (mole fraction) (in ethanol, 293.15 K): 0.0322
solubility (mole fraction) (in ethanol, 298.15 K): 0.0414
solubility (mole fraction) (in ethanol, 303.15 K): 0.0489
solubility (mole fraction) (in ethanol, 308.15 K): 0.0707
solubility (mole fraction) (in ethanol, 313.15 K): 0.102
solubility (mole fraction) (in ethanol, 318.15 K): 0.134
solubility (mole fraction) (in ethanol, 323.15 K): 0.197
solubility (mole fraction) (in ethanol, 328.15 K): 0.283
solubility (mole fraction) (in ethanol, 333.15 K): 0.334
solubility (mole fraction) (in ethyl acetate, 283.15 K): 0.145
solubility (mole fraction) (in ethyl acetate, 288.15 K): 0.168
solubility (mole fraction) (in ethyl acetate, 293.15 K): 0.199
solubility (mole fraction) (in ethyl acetate, 298.15 K): 0.232
solubility (mole fraction) (in ethyl acetate, 303.15 K): 0.269
solubility (mole fraction) (in ethyl acetate, 308.15 K): 0.328
solubility (mole fraction) (in ethyl acetate, 313.15 K): 0.387
solubility (mole fraction) (in ethyl acetate, 318.15 K): 0.441
solubility (mole fraction) (in ethyl acetate, 323.15 K): 0.502
solubility (mole fraction) (in ethyl acetate, 328.15 K): 0.565
solubility (mole fraction) (in ethyl acetate, 333.15 K): 0.625
solubility (mole fraction) (in n-butanol, 283.15 K): 0.0281
solubility (mole fraction) (in n-butanol, 288.15 K): 0.0326
solubility (mole fraction) (in n-butanol, 293.15 K): 0.0421
solubility (mole fraction) (in n-butanol, 298.15 K): 0.0531
solubility (mole fraction) (in n-butanol, 303.15 K): 0.0671
solubility (mole fraction) (in n-butanol, 308.15 K): 0.0877
solubility (mole fraction) (in n-butanol, 313.15 K): 0.107
solubility (mole fraction) (in n-butanol, 318.15 K): 0.166
solubility (mole fraction) (in n-butanol, 323.15 K): 0.23
solubility (mole fraction) (in n-butanol, 328.15 K): 0.364
solubility (mole fraction) (in n-butanol, 333.15 K): 0.514
solubility (mole fraction) [1]: 0.134
solubility (mole fraction) [2]: 0.161
solubility (mole fraction) [3]: 0.191
solubility (mole fraction) [4]: 0.216
solubility (mole fraction) [5]: 0.264
solubility (mole fraction) [6]: 0.307
solubility (mole fraction) [7]: 0.354
solubility (mole fraction) [8]: 0.412
solubility (mole fraction) [9]: 0.491
solubility (mole fraction) [10]: 0.548
solubility (mole fraction) [11]: 0.635
solubility (mole fraction) (in toluene, 283.15 K): 0.158
solubility (mole fraction) (in toluene, 288.15 K): 0.185
solubility (mole fraction) (in toluene, 293.15 K): 0.223
solubility (mole fraction) (in toluene, 298.15 K): 0.266
solubility (mole fraction) (in toluene, 303.15 K): 0.301
solubility (mole fraction) (in toluene, 308.15 K): 0.344
solubility (mole fraction) (in toluene, 313.15 K): 0.399
solubility (mole fraction) (in toluene, 318.15 K): 0.455
solubility (mole fraction) (in toluene, 323.15 K): 0.514
solubility (mole fraction) (in toluene, 328.15 K): 0.582
solubility (mole fraction) (in toluene, 333.15 K): 0.624
